Data on 23 molecules can be found in patent US8309721B2, “HSP90 inhibitory carbazole derivatives, compositions containing same and use thereof” (Sanofi, priority 2008, dated 2012).

The subject of series [1] is Her2 receptor expression at the surface of SKBr3 cells. As to the kind of experiment: phenotypic SKBr3/HER2 cell test (Her2 surface expression by flow cytometry). The format is cell-based. The settings on record: Homo sapiens, SK-BR-3, 24 h incubation, inhibition of Her2 expression. The method in brief:
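SKBr3 cells (Her2-overexpressing adenocarcinoma) treated 24 h with compound at varying concentrations, then stained with PE-anti-Her2 antibody 30 min at 4° C; surface Her2 measured by flow cytometry. IC50 from nonlinear fit of % inhibition of Her2 expression versus concentration.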
(In general: Flow cytometry measures light scatter and fluorescence of single cells or particles in a stream.)

A further series concerns the target Hsp82 (Saccharomyces cerevisiae, UniProt P02829). Nature of the series: Hsp82/ATPase test (malachite green or PK/LDH coupled method). The format is biochemical. Here is the method:
The biochemical activity of the compounds can in particular be evaluated by means of the “Hsp82/ATPase” test described below: The inorganic phosphate released during the hydrolysis of ATP by the ATPase activity of Hsp82 is quantified by the malachite green method. In the presence of this reagent, formation of the inorganic phosphate-molybdate-malachite green complex, which absorbs at a wavelength of 620 nm, occurs. The products to be evaluated are incubated in a reaction volume of 30 μl, in the presence of 1 μM Hsp82 and of 250 μM of substrate (ATP) in a buffer composed of 50 mM Hepes-NaOH (pH 7.5), 1 mM DTT, 5 mM MgCl2 and 50 mM KCl at 37° C. for 60 min. In parallel, an inorganic phosphate range of between 1 and 40 μM is made up in the same buffer. […] After incubation at ambient temperature for 20 min, the absorbance of the various wells is measured using a microplate reader at 620 nm. The inorganic phosphate concentration of each sample is then calculated from the standard curve. The ATPase activity of Hsp82 is expressed as concentration of inorganic phosphate produced in 60 minutes. The effect of the various products tested is expressed as percentage inhibition of the ATPase activity. The formation of ADP due to the ATPase activity of Hsp82 was used to develop another method for evaluating the enzyme activity of this enzyme by application of an enzymatic coupling system involving pyruvate kinase (PK) and lactate dehydrogenase (LDH). In this kinetic-type spectrophotometric method, PK catalyses the formation of ATP and of pyruvate from phosphoenol pyruvate (PEP) and the ADP produced by Hsp82. The pyruvate formed, which is a substrate for LDH, is subsequently converted to lactate in the presence of NADH. In this case, the decrease in the NADH concentration, measured through the decrease in absorbance at the wavelength of 340 nm, is proportional to the concentration of ADP produced by Hsp82. The products tested are incubated in a reaction volume of 100 μl of buffer composed of 100 mM Hepes-NaOH (pH 7.5), 5 mM MgCl2, 1 mM DTT, 150 mM KCl, 0.3 mM NADH, 2.5 mM PEP and 250 μM ATP. This mixture is preincubated at 37° C. for 30 minutes before the addition of 3.77 units of LDH and 3.77 units of PK. The reaction is initiated by addition of the product to be evaluated, in varying concentrations, and of Hsp82, at the concentration of 1 μM. The enzymatic activity of Hsp82 is then measured continuously, in a microplate reader, at 37° C., at the wavelength of 340 nm. The initial rate of the reaction is obtained by measuring the slope of the tangent to the origin of the curve recorded. The enzymatic activity is expressed in μM of ADP formed per minute. The effect of the various products tested is expressed as percentage inhibition of the ATPase activity according to the codification below: […]

Where [2] appears, read: 1 μM Hsp82, 250 μM ATP, 37° C., read-out: Hsp82 ATPase IC50.

Where a name gives a salt, the structure may show the parent alone. Read-outs that look alike come from different tables or passages of the source.

Chain of Hsp82 (P02829 whole entry): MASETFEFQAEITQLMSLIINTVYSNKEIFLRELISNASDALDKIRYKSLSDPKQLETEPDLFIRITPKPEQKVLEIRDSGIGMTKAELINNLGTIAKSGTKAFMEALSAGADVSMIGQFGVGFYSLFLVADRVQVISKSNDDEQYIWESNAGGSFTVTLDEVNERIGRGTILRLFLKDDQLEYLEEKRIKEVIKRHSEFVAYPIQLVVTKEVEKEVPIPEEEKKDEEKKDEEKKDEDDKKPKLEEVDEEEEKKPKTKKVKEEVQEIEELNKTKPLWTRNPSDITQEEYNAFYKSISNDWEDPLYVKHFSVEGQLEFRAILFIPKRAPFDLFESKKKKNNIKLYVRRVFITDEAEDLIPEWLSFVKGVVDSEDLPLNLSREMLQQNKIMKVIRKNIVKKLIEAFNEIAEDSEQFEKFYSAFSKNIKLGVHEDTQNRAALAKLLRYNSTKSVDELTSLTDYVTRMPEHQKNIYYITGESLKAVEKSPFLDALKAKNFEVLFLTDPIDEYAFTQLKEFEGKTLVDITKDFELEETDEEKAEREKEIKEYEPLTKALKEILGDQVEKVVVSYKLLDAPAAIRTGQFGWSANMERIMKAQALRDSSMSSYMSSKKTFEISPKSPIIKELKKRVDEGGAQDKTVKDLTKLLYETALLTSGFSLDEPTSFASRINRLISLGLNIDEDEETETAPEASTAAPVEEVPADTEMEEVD

For orientation: melting point means the temperature of the solid-liquid transition. The term IC50 denotes the concentration needed to halve the response being measured. `COc1cncc(-c2cccc3c2c2ccccc2n3-c2ccc(C(N)=O)c(N[C@H]3CC[C@H](O)CC3)c2)c1` [Example 27, 2-[(4-trans-hydroxycyclohexyl)amino]-4-[4-(5-methoxypyridin-3-yl)-9H-carbazol-9-yl]benzamide] came in with a melting point of 263 °C. The molecule further displayed a 50% inhibitory concentration (IC50) in series [1] of less than 1 µM. For the same molecule, the IC50 at Hsp82 (setting [2]) was less than 1 µM.

For `CNC(=O)CNc1cc(-n2c3ccccc3c3c(-c4nc5ccc(F)cc5[nH]4)cccc32)ccc1C(N)=O` [Example 44, 4-[4-(6-fluoro-1H-benzimidazol-2-yl)-9H-carbazol-9-yl]-2-(methylcarbamoylmethylamino)benzamide], the 50% inhibitory concentration (IC50) in series [1] was less than 1 µM; on Hsp82 (setting [2]), 1 to 10 µM.

Take `NC(=O)c1ccc(-n2c3ccccc3c3c(-c4cnc5ccccc5c4)cccc32)cc1NCC[N+]1([O-])CCCC1` [Example 45, 2-[2-(1-oxypyrrolidin-1-yl)ethylamino]-4-[4-(quinolin-3-yl)-9H-carbazol-9-yl]benzamide]: the IC50 (in series [1]; on Hsp82 (setting [2])) was less than 1 µM each time.

As to `CCOCCNc1cc(-n2c3ccccc3c3c(-c4nc5ccc(F)cc5[nH]4)cccc32)ccc1C(N)=O` [Example 46, 2-(2-ethoxyethylamino)-4-[4-(6-fluoro-1H-benzimidazol-2-yl)-9H-carbazol-9-yl]benzamide], the IC50 in series [1] was less than 1 µM; at Hsp82 (setting [2]), 1 to 10 µM.

On to `NC(=O)CCNc1cc(-n2c3ccccc3c3c(-c4nc5ccc(F)cc5[nH]4)cccc32)ccc1C(N)=O` [Example 47, 2-(2-carbamoylethylamino)-4-[4-(6-fluoro-1H-benzimidazol-2-yl)-9H-carbazol-9-yl]benzamide], for which the IC50 (in series [1]; at Hsp82 (setting [2])) was less than 1 µM each time.

Consider `NC(=O)c1ccc(-n2c3ccccc3c3c(-c4nc5ccc(F)cc5[nH]4)cccc32)cc1NCc1ccco1` [Example 48, 4-[4-(6-fluoro-1H-benzimidazol-2-yl)-9H-carbazol-9-yl]-2-[(furan-2-ylmethyl)amino]benzamide], for which the IC50 in series [1] is less than 1 µM; at Hsp82 (setting [2]), 1 to 10 µM.

Take `NC(=O)c1ccc(-n2c3ccccc3c3c(-c4nc5ccc(F)cc5[nH]4)cccc32)cc1NCc1ccoc1` [Example 50, 4-[4-(6-fluoro-1H-benzimidazol-2-yl)-9H-carbazol-9-yl]-2-[(furan-3-ylmethyl)amino]benzamide]: the half-maximal inhibitory concentration (IC50) is less than 1 µM in series [1] and 1 to 10 µM at Hsp82 (setting [2]).

As for `NC(=O)c1ccc(-n2c3ccccc3c3c(-c4nc5ccc(F)cc5[nH]4)cccc32)cc1NCc1ccn[nH]1` [Example 51, 4-[4-(6-fluoro-1H-benzimidazol-2-yl)-9H-carbazol-9-yl]-2-[(2H-pyrazol-3-ylmethyl)amino]benzamide], the IC50 in series [1] is less than 1 µM; at Hsp82 (setting [2]) it was 1 to 10 µM.

With `NC(=O)c1ccc(-n2c3ccccc3c3c(-c4nc5ccc(F)cc5[nH]4)cccc32)cc1NC(CO)CO` [Example 52, 4-[4-(6-fluoro-1H-benzimidazol-2-yl)-9H-carbazol-9-yl]-2-(2-hydroxy-1-hydroxymethylethylamino)benzamide], the half-maximal inhibitory concentration (IC50) (in series [1]; at Hsp82 (setting [2])) was less than 1 µM each time.

As to `NCC(CO)Oc1cc(-n2c3ccccc3c3c(-c4nc5ccc(F)cc5[nH]4)cccc32)ccc1C(N)=O` (centres unmarked) [Example 53, 2-(2-amino-1-hydroxymethylethyloxy)-4-[4-(6-fluoro-1H-benzimidazol-2-yl)-9H-carbazol-9-yl]benzamide], the concentration for half-maximal inhibition (IC50) (in series [1]; on Hsp82 (setting [2])) was 1 to 10 µM in each case.

On to `COC[C@H](C)Nc1cc(-n2c3ccccc3c3c(-c4nc5ccc(F)cc5[nH]4)cccc32)ccc1C(N)=O` [Example 54], for which the IC50 (in series [1]; at Hsp82 (setting [2])) was less than 1 µM each time.

`NC(=O)c1ccc(-n2c3ccccc3c3c(-c4cnc(N)nc4)cccc32)cc1N[C@H]1CC[C@H](O)CC1` [Example 55, 4-[4-(2-aminopyrimidin-5-yl)-9H-carbazol-9-yl]-2-[(4-trans-hydroxycyclohexyl)amino]benzamide hydrochloride]: the IC50 (in series [1]; at Hsp82 (setting [2])) was less than 1 µM throughout.

`NC(=O)c1ccc(-n2c3ccccc3c3c(-c4nc5ccc(F)cc5[nH]4)cccc32)cc1NCc1c[nH]cn1` [Example 57, 4-[4-(6-fluoro-1H-benzimidazol-2-yl)-9H-carbazol-9-yl]-2-[(1H-imidazoly-4-yl)methylamino]benzamide]: the IC50 (in series [1]; on Hsp82 (setting [2])) was 1 to 10 µM in each case.

Take `NC(=O)c1ncc(-n2c3ccccc3c3c(-c4cnc5ccccc5c4)cccc32)cc1N[C@H]1CC[C@H](O)CC1` [Example 58, 3-(4-trans-hydroxycyclohexylamino)-5-[(4-quinolin-3-yl)-9H-carbazol-9-yl]pyridine-2-carboxamide]: the IC50 (in series [1]; on Hsp82 (setting [2])) was less than 1 µM each time.

Consider `NC(=O)c1ccc(-n2c3ccccc3c3c(-c4nc5ccc(F)cc5[nH]4)cccc32)cc1NC1CCOCC1` [Example 59, 4-[4-(6-fluoro-1H-benzimidazol-2-yl)-9H-carbazol-9-yl]-2-(tetrahydropyran-4-ylamino)benzamide], for which the IC50 (in series [1]; at Hsp82 (setting [2])) was less than 1 µM throughout.

In the case of `CC(C)(O)CCNc1cc(-n2c3ccccc3c3c(-c4nc5ccc(F)cc5[nH]4)cccc32)ccc1C(N)=O` [Example 61, 4-[4-(6-fluoro-1H-benzimidazol-2-yl)-9H-carbazol-9-yl]-2-(3-hydroxy-3-methylbutylamino)benzamide], the IC50 was less than 1 µM in series [1] and 1 to 10 µM on Hsp82 (setting [2]).

As to `NC(=O)c1ccc(-n2c3ccccc3c3c(-c4nc5ccc(F)cc5[nH]4)cccc32)cc1NCCF` [Example 62, 4-[4-(6-fluoro-1H-benzimidazol-2-yl)-9H-carbazol-9-yl]-2-(2-fluoroethylamino)benzamide], the 50% inhibitory concentration (IC50) (in series [1]; on Hsp82 (setting [2])) was less than 1 µM each time.

Consider `NC(=O)c1ccc(-n2c3ccccc3c3c(-c4cnc5ccccc5c4)cccc32)cc1NCCC1(O)CCCC1` [Example 64], for which the IC50 (in series [1]; at Hsp82 (setting [2])) was less than 1 µM each time.

In the case of `CN1CCC(O)(CCNc2cc(-n3c4ccccc4c4c(-c5cnc6ccccc6c5)cccc43)ccc2C(N)=O)CC1` [Example 65, 2-[2-(4-hydroxy-1-methylpiperidin-4-yl)ethylamino]-4-[4-(quinolin-3-yl)-9H-carbazol-9-yl]benzamide], the IC50 (in series [1]; on Hsp82 (setting [2])) was less than 1 µM in each case.

Take `NC(=O)c1ccc(-n2c3ccccc3c3c(-c4cncc(OCc5ccccc5)c4)cccc32)cc1N[C@H]1CC[C@H](O)CC1` [Example 67, 4-{4-[5-(benzyloxy)pyridin-3-yl]-9H-carbazol-9-yl}-2-[(4-trans-hydroxycyclohexyl)amino]benzamide]: the 50% inhibitory concentration (IC50) (in series [1]; on Hsp82 (setting [2])) was 1 to 10 µM throughout.

`N#Cc1ccc(-c2cccc3c2c2ccccc2n3-c2ccc(C(N)=O)c(NCCCO)c2)cn1` [Example 112, 4-[4-(6-cyanopyridin-3-yl)-9H-carbazol-9-yl]-2-[(3-hydroxypropyl)amino]benzamide] yielded a melting point of 204 °C. Moreover, the IC50 in series [1] was less than 1 µM.

In turn, `N#Cc1ccc(-c2cccc3c2c2ccccc2n3-c2ccc(C(N)=O)c(NC3CCOCC3)c2)cn1` [Example 126, 4-[4-(6-cyanopyridin-3-yl)-9H-carbazol-9-yl]-2-(tetrahydro-2H-pyran-4-ylamino)benzamide] came in with a melting point of 256 °C. In series [1], this molecule had a half-maximal inhibitory concentration (IC50) of less than 1 µM.

Take `CN1C2CCC1CC(Nc1cc(-n3c4ccccc4c4c(-c5cnc6ccccc6c5)cccc43)ccc1C(N)=O)C2` (centres unmarked) [Example 138, 2-(8-methyl-8-azabicyclo[3.2.1]oct-3-yl)amino-4-[4-(quinolin-3-yl)-9H-carbazol-9-yl]benzamide]: the IC50 (in series [1]; against Hsp82) was less than 1 µM each time.
